One data set concerns Soya plants. In words: Phytotoxicity determination on soya. The class given is in vivo. The settings on record: 200 L/ha of 1% w/w emulsion (EC 90% w/w solvent, 10% w/w emulsifier), after 14 days. Here is the method: Soya plants grown under standard greenhouse conditions in the growth stage 13 were treated with aqueous emulsions in a spray cabin. The resulting plant spray dosage represented an application rate of 200 L/ha of 1% w/w emulsion, corresponding to the application of 2 L/ha of the emulsifiable concentrate. […] The experimental period lasted 14 days, during which time the Soya plants were given optimum watering, nutrients, and light.
An assessment of 1 to 10% phytotoxicity is the limit of acceptable plant damage by farmers.

Data set [1] can be described thus: Water solubility of the solvent (method based on CIPAC MT157.1 and OECD 105). Type of data set: physicochemical. The settings on record: solvent in water, visual assessment of undissolved solvent. Here is the method: The water solubility of the solvent was determined according to a method based on CIPAC MT157.1 and OECD 105 via the visual assessment of undissolved solvent in water after vigorous mixing and standing. Herein, various amounts of solvent and water were mixed with vigorous shaking in a glass-stoppered graduated cylinder or separating funnel, followed by standing for at least 30 min to enable separation. […] This method can be repeated with various amounts of solvent and water to enable the determination of the water-solubility of the solvent.

SMILES strings stand for the structures.

On to `CCCCCCCCCC(=O)N(C)C` [Dimethyl decanamide, dimethyl decanamide], for which, in the data set with Soya plants, the “phytotoxicity (visual, scale 0% to 100%)” value amounted to 50%.

Take `COc1ccc(C=O)cc1` [4-anisaldehyde]: the “phytotoxicity (visual, scale 0% to 100%)” value in the data set on Soya plants is recorded as 0%. Moreover, the water solubility in data set [1] is reported as 0.20 % w/w.

As for `CCCCC(CC)COC(=O)C(C)O` (stereo not shown) [2-Ethyl hexyl lactate, 2-Ethylhexyl Lactate], the “phytotoxicity (visual, scale 0% to 100%)” value in the data set with Soya plants was found to be 30%.

The values above are taken from patent publication US20260256133A1, “AN EMULSIFIABLE CONCENTRATE HAVING A (SUBSTITUTED) BENZALDEHYDE-BASED SOLVENT SYSTEM” (BASF SE, priority 2022, published 2026).
